# Experimental data taken from ChEMBL document CHEMBL4390694, “Benzofuran-isatin hybrids tethered via different length alkyl linkers and their in vitro anti-mycobacterial activities” (Bioorg Med Chem, 2019).
# System: Mycobacterium tuberculosis
# Test: Antimycobacterial activity against multidrug-resistant Mycobacterium tuberculosis assessed as complete inhibition of bacterial growth incubated for 7 days by rapid direct susceptibility test
# Type: functional
# Conditions: 168 h
row,SMILES,MIC
1,CCOC(=O)c1c(-c2ccc(OC)cc2)oc2ccc(OCCCN3C(=O)C(=O)c4ccccc43)cc12,1 µg/mL
2,CCOC(=O)c1c(-c2ccc(OC)cc2)oc2ccc(OCCCCCN3C(=O)C(=O)c4cc(F)ccc43)cc12,0.25 µg/mL
3,CCOC(=O)c1c(-c2ccc(OC)cc2)oc2ccc(OCCCCCCN3C(=O)C(=O)c4ccccc43)cc12,0.125 µg/mL
4,CCOC(=O)c1c(-c2ccc(F)cc2)oc2ccc(OCCCCCN3C(=O)C(=O)c4cc(OC)ccc43)cc12,1 µg/mL
5,CO[C@H]1/C=C/O[C@@]2(C)Oc3c(C)c(O)c4c(O)c(c(/C=N/N5CCN(C)CC5)c(O)c4c3C2=O)NC(=O)/C(C)=C\C=C\[C@H](C)[C@H](O)[C@@H](C)[C@@H](O)[C@@H](C)[C@H](OC(C)=O)[C@@H]1C [RIFAMPIN],64 µg/mL
6,CCOC(=O)c1c(-c2ccccc2)oc2ccc(OCCCN3C(=O)C(=O)c4cc(OC)ccc43)cc12,0.25 µg/mL
7,CCOC(=O)c1c(-c2ccc(OC)cc2)oc2ccc(OCCCCCCN3C(=O)C(=O)c4cc(F)ccc43)cc12,0.125 µg/mL
8,CCOC(=O)c1c(-c2ccc(OC)cc2)oc2ccc(OCCCN3C(=O)C(=O)c4cc(F)ccc43)cc12,0.25 µg/mL
9,CCOC(=O)c1c(-c2ccc(F)cc2)oc2ccc(OCCCN3C(=O)C(=O)c4cc(F)ccc43)cc12,1 µg/mL
10,NNC(=O)c1ccncc1 [ISONIAZID],> 128 µg/mL
11,CCOC(=O)c1c(-c2ccc(F)cc2)oc2ccc(OCCCN3C(=O)C(=O)c4cc(OC)ccc43)cc12,2 µg/mL
12,CCOC(=O)c1c(-c2ccc(OC)cc2)oc2ccc(OCCCCN3C(=O)C(=O)c4ccccc43)cc12,1 µg/mL
13,CCOC(=O)c1c(-c2ccc(F)cc2)oc2ccc(OCCCN3C(=O)C(=O)c4ccccc43)cc12,1 µg/mL
14,CCOC(=O)c1c(-c2ccc(F)cc2)oc2ccc(OCCCCCCN3C(=O)C(=O)c4cc(F)ccc43)cc12,0.25 µg/mL
15,CNC(=O)c1c(-c2ccc(O)cc2)oc2ccc(O)c(CN3CCCCC3)c12,< 0.06 µg/mL
16,CCOC(=O)c1c(-c2ccc(OC)cc2)oc2ccc(OCCCCN3C(=O)C(=O)c4cc(OC)ccc43)cc12,4 µg/mL
